In US9890117B2, “Benzamide compounds and related methods of use” (Northwestern University, priority 2012, dated 2018):
pEC50: −log10 of the molar value. ≈ marks a conversion by molar mass, not a printed value. Each block holds one molecule with its values, some of them ahead of it.

What was measured:
[1] = molecular target: T1, catalytically active fragment of SIRT3 (Homo sapiens, UniProt Q9NTG7); assay: Fluor-de-Lys biochemical sirtuin deacetylation assay, SIRT3 counter-screen; conditions: 10 μM counter-screen
T1 construct: the catalytically active fragment of SIRT3
T1 sequence (Q9NTG7 118-380 limits assumed): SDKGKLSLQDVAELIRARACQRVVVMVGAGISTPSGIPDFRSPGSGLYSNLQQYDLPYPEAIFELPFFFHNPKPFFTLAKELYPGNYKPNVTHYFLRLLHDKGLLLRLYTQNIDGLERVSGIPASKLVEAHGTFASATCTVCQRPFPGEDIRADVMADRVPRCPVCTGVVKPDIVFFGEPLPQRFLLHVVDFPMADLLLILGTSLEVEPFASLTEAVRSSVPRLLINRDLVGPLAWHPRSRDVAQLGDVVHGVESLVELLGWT
Method: (§1) To evaluate the potency and selectivity of the synthesized compounds robust, sensitive, and quantitative, biochemical sirtuin deacetylation assays were employed. (SIRT2 then SIRT1 and SIRT3 for selectivity). Sirtuin activity was assessed using the Fluor-de-Lys assay with recombinant active enzymes SIRT1, SIRT2, and the catalytically active fragment of SIRT3, as described in the literature. […] AK-1 was included as the reference compound with each assay. […] Those compounds also were subjected to SIRT1 and SIRT3 assays to determine sirtuin selectivity.
(§2) As discussed above, Tables 1-10 are presented and followed by details relating to the synthesis and characterization of compounds prepared. Inhibition assays and related testing of such compounds are conducted according to well-known literature protocols including those found in Silverman, et al., Biorg. Med. Chem. Lett. 22 (2012) 2789-2793 and the references cited therein, such references and tests incorporated herein by reference.

SIRT1 = molecular target: T2, SIRT1 (Homo sapiens, UniProt Q96EB6); assay: Fluor-de-Lys biochemical sirtuin deacetylation assay, SIRT1 counter-screen; conditions: for SIRT1 inhibition: 10 μM counter-screen
T2 sequence (Q96EB6 1-747): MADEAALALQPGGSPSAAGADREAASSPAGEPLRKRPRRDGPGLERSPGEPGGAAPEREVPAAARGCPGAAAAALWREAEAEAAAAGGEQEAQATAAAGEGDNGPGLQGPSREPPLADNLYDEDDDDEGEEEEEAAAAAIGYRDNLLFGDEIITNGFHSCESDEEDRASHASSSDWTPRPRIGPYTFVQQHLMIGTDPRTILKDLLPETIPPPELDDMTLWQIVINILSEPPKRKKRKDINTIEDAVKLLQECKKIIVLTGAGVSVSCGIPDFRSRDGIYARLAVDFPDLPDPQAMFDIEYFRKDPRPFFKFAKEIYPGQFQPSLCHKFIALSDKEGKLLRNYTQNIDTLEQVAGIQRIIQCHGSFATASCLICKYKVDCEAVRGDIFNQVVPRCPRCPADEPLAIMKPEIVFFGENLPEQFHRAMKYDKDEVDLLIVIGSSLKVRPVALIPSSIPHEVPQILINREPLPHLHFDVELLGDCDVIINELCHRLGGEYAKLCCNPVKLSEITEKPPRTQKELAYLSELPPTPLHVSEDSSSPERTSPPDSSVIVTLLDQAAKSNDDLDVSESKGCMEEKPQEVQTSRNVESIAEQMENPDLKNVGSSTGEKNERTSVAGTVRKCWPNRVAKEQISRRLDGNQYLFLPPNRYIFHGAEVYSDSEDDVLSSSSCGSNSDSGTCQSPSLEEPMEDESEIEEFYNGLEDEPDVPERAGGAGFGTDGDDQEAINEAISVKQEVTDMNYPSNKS
Method: as §1, §2

[2] = tested on: α-tubulin K40 acetylation (SIRT2 substrate) in N2a cells; assay: α-tubulin K40 acetylation (Western) in neuronal N2a cells; format: cell-based; conditions: N2a cells, 10, 25, 50 μM, 6 h
Method: FIGS. 2A-B. Cell-based assay for evaluating the bioactivity of SIRT2 inhibitors. A) Extracts from neuronal N2a cells treated with 61 and 64 for 6 h were resolved on SDS-PAGE and analyzed by Western analysis using antibodies specific to acetylated α-tubulin, and normalized to GADPH and total α-tubulin (not shown) levels.
(§3) To assess SIRT2 inhibition activity in cells, an increase in α-tubulin K40 acetylation (α-tubulin is a substrate for SIRT2) in neuronal N2a and in wild type and HD ST141 cell lines was measured. In this bioactivity test, extracts from compound-treated cells were resolved on SDS-PAGE and subjected to Western analysis using primary antibodies specific to K40 acetylated α-tubulin. Trichostatin A (TSA), a potent HDAC inhibitor, was used as a positive control. To normalize the levels of acetylated α-tubulin we used total α-tubulin and GADPH proteins, detected by Western reactive antibodies specific to total α-tubulin and GADPH. […] FIGS. 2A-B show the bioactivity of 61 and 64 in N2a cells at three tested concentrations (10, 25, and 50 μM). Toxicity of the compounds was monitored in both cell lines, and most of them were non-toxic up to 50 μM in a 6 h treatment.

SIRT2 = molecular target: T3, SIRT2 (Homo sapiens, UniProt Q8IXJ6); assay: Fluor-de-Lys biochemical sirtuin deacetylation assay, SIRT2; conditions: for SIRT2 inhibition potency compared with AK-1: dose-response, five doses, side-by-side with AK-1; for inhibition at 10 µM: sulfone, sulfoxide, thioether derivatives of C2-8 scaffold
T3 construct: recombinant active enzymes SIRT1, SIRT2, and the catalytically active fragment of SIRT3
T3 sequence (Q8IXJ6 1-389): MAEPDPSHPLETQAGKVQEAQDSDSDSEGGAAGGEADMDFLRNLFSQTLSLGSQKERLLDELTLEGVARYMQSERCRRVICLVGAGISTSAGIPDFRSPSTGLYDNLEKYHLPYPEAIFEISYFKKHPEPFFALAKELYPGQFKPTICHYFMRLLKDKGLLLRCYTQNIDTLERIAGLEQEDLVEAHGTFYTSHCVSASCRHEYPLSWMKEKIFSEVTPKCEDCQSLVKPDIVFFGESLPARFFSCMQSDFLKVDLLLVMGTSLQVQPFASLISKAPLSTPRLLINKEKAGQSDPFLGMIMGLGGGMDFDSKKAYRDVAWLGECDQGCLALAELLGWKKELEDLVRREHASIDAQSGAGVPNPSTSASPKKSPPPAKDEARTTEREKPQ

[3] = tested on: α-tubulin K40 acetylation (SIRT2 substrate) in wild type and HD ST141 cell lines; assay: α-tubulin K40 acetylation (Western) in wild type and HD ST141 cell lines; format: cell-based
Method: as §3

[4] = tested on: huntingtin (htt) aggregation; conditions: R6/2 mice; cited from earlier work
htt aggregation = conditions: 140 CAG knock-in model of HD; cited from earlier work
[5] = cited from earlier work
[6] = in vivo; cited from earlier work
polyQ aggregation = conditions: cell-based model; read-out: suppression of aggregation, EC50; cited from earlier work
[7] = Microsomal stability screen, mouse; conditions: 1 μM
PBS Express solubility = conditions: aqueous buffer, kinetic from dmso stock
[8] = Microsomal stability screen, human; conditions: 1 μM
[9] = Microsomal intrinsic clearance, human; conditions: for microsomal CLint at 1 μM / half-life at 1 μM: human, microsomes
[10] = Microsomal intrinsic clearance, mouse; conditions: for microsomal CLint at 1 μM / half-life at 1 μM: mouse, microsomes

SIRT3 inhibition [1]: minimal SIRT3 inhibition
SMILES: O=C(Nc1ccc(Cl)cn1)c1cccc(S(=O)(=O)Nc2ccc(Cl)cn2)c1 [Compound 41, N-(5-chloropyridin-2-yl)-3-(N-(5-chloropyridin-2-yl)sulfamoyl)benzamide]

SIRT3 inhibition [1]: minimal SIRT3 inhibition | SIRT1 inhibition (SIRT1): minimal SIRT1 inhibition
SMILES: CC(=O)c1ccc(N(C)S(=O)(=O)c2cccc(C(=O)Nc3ccc(C#N)cc3)c2)cc1 [Compound 106, 3-(N-(4-Acetylphenyl)-N-methylsulfamoyl)-N-(4-cyanophenyl)benzamide]

SIRT2 inhibition potency compared with AK-1 (SIRT2): significantly more potent | SIRT1 inhibition (SIRT1): minimal SIRT1 inhibition
SMILES: CN(c1ccc(S(C)(=O)=O)cc1)S(=O)(=O)c1cccc(C(=O)Nc2ccc(C#N)cc2)c1 [Compound 115, N-(4-Cyanophenyl)-3-(N-methyl-N-(4-(methylsulfonyl)phenyl)sulfamoyl)benzamide]
increase in α-tubulin K40 acetylation [2]: did not show any significant increase | increase in α-tubulin K40 acetylation [3]: did not show any significant increase

Fraction remaining, last time point (%) (Plasma half life; Mouse plasma, 5 μM): 3.4% | Plasma T1/2 (Plasma half life; Mouse plasma, 5 μM): 18 min
SMILES: CC(C)[N+](C)(CCOC(=O)C1c2ccccc2Oc2ccccc21)C(C)C [Propantheline, reference compound]

SMILES: O=C(Nc1ccc(Br)cc1)c1cccc(S(=O)(=O)Nc2ccc(Br)cc2)c1 [Compound C2-8]
inhibition of huntingtin (htt) aggregation in the striatum [4]: 25-30% | reduction of htt aggregation (htt aggregation): 50% | aqueous solubility [5]: low aqueous solubility | toxicity in acute and chronic tolerability studies [6]: not toxic | pEC50 (polyQ aggregation): 7.30

SIRT1 inhibition (SIRT1): minimal SIRT1 inhibition
SMILES: CN(c1ccc(F)cc1)S(=O)(=O)c1cccc(C(=O)Nc2ccc(Cl)cn2)c1 [Compound 43, N-(5-chloropyridin-2-yl)-3-(N-(4-fluorophenyl)-N-methylsulfamoyl)benzamide]

SMILES: O=C(Nc1cccc([N+](=O)[O-])c1)c1cccc(S(=O)(=O)N2CCCCCC2)c1 [AK-1]
aqueous solubility [5]: low aqueous solubility

inhibition at 10 µM (SIRT2): 40% | potency compared with 59 (SIRT2; SIRT2 assay (61 also cell-based tubulin deacetylation assay)): more potent than 59 | SIRT2 inhibition potency compared with AK-1 (SIRT2): equal or just slightly better potency | Mean remaining parent NADPH-free (%) [7]: 100% | Mean remaining parent with NADPH (%) [7]: 68% | solubility at 45 min (PBS Express solubility): 62.5 µM (≈ 25.7 µg/mL) | solubility at 16 h (PBS Express solubility): 62.5 µM (≈ 25.7 µg/mL) | Mean remaining parent NADPH-free (%) [8]: 93% | Mean remaining parent with NADPH (%) [8]: 89%
SMILES: N#Cc1ccc(NC(=O)c2cccc(S(=O)(=O)Cc3ccc(Cl)cc3)c2)cc1 [Compound 174, 3-((4-Chlorobenzyl)sulfonyl)-N-(4-cyanophenyl)benzamide]

SMILES: CN(c1ccc(Cl)cc1)S(=O)(=O)c1cccc(C(=O)Nc2ccc(C#N)cc2)c1 [Compound 64, 3-(N-(4-Chlorophenyl)-N-methylsulfamoyl)-N-(4-cyanophenyl)benzamide]
increase in α-tubulin K40 acetylation [2]: dose-dependent increase

inhibition at 10 µM (SIRT2): 60% | Fraction remaining, last time point (%) (Plasma half life; Mouse plasma, 5 μM): 62% | half-life at 5 μM (Plasma half life; mouse, plasma): 89 min | % remaining 60 min ([9]; 1 μM, 60 min): 5.3% | microsomal CLint at 1 μM ([9]; NADPH-dependent CLint): 241 µL/min/mg | half-life at 1 μM ([9]; NADPH-dependent T1/2 (min)): 9.6 min | microsomal CLint at 1 μM ([9]; NADPH-free CLint): 39 µL/min/mg | half-life at 1 μM ([9]; NADPH-free T1/2 (min)): 59 min | solubility at 45 min (PBS Express solubility): 15.6 µM (≈ 6.49 µg/mL) | solubility at 16 h (PBS Express solubility): 15.6 µM (≈ 6.49 µg/mL) | % remaining 60 min ([10]; 1 μM, 60 min): 0.8% | microsomal CLint at 1 μM ([10]; NADPH-dependent CLint): 445 µL/min/mg | half-life at 1 μM ([10]; NADPH-dependent T1/2 (min)): 5.2 min | microsomal CLint at 1 μM ([10]; NADPH-free CLint): 58 µL/min/mg | half-life at 1 μM ([10]; NADPH-free T1/2 (min)): 40 min
SMILES: C[S+]([O-])c1ccc(NC(=O)c2cccc(SCc3ccc(Cl)cc3)c2)cc1 (stereo not drawn) [Compound 182, 3-((4-chlorobenzyl)thio)-N-(4-(methylsulfinyl)phenyl)benzamide]

Mean remaining parent NADPH-free (%) [7]: 100% | Mean remaining parent with NADPH (%) [7]: 4% | Mean remaining parent NADPH-free (%) [8]: 112% | Mean remaining parent with NADPH (%) [8]: 2%
SMILES: CN(c1ccc(Cl)cc1)S(=O)(=O)c1cccc(C(=O)Nc2ccc(S(C)(=O)=O)cc2)c1 [Compound 61, 3-(N-(4-Chlorophenyl)-N-methylsulfamoyl)-N-(4-(methylsulfonyl)phenyl)benzamide]
increase in α-tubulin K40 acetylation [2]: dose-dependent increase

SIRT1 inhibition (SIRT1): minimal SIRT1 inhibition
SMILES: CN(c1ccc(Cl)cc1)S(=O)(=O)c1cccc(C(=O)Nc2ccc(C(F)(F)F)cn2)c1 [Compound 56, 3-(N-(4-chlorophenyl)-N-methylsulfamoyl)-N-(5-(trifluoromethyl)pyridin-2-yl)benzamide]

SMILES: O=C(Nc1cccc(Br)c1)c1cccc(S(=O)(=O)N2CCCCCC2)c1 [AK-7]
aqueous solubility [5]: low aqueous solubility

SIRT3 inhibition [1]: totally inactive | inhibition at 10 µM (SIRT1; 10 μM): 65%
SMILES: O=C(Nc1nccs1)c1cccc(S(=O)(=O)Nc2ccc(Cl)cc2)c1 [Compound 31, 3-(N-(4-chlorophenyl)sulfamoyl)-N-(thiazol-2-yl)benzamide]

SIRT3 inhibition [1]: minimal SIRT3 inhibition
SMILES: CN(c1ccc(Cl)cc1)S(=O)(=O)c1cccc(C(=O)Nc2ccc(O)cn2)c1 [Compound 58, 3-(N-(4-chlorophenyl)-N-methylsulfamoyl)-N-(5-hydroxypyridin-2-yl)benzamide]
